{"source": "patent US8778437B2", "about": "“Taste improving substances” (Givaudan Nederland Services B.V., priority 2004, dated 2014)", "test_system": "panel", "experiment": "Panel comparison of carbonated lemonade with and without test substance (Example 3)", "type": "in vivo", "details": "0.03 wt.% of spray dried sample of Example 2 in carbonated lemonade (10% sugar, 1200 ppm citric acid, 100 ppm ascorbic acid, pH 3)", "description": "A basic carbonated lemonade containing 10% sugar, 1200 ppm citric acid and 100 ppm ascorbic acid, was prepared. The pH of the lemonade was 3. This was used as the control. To the test lemonade the spray dried sample described in Example 2 was added in an amount of 0.03 wt. %. The two lemonades were compared by a panel."}
{"smiles": "CC(O)C(=O)NCCOP(=O)(O)O", "note": "(stereo not shown) [N-lactoyl-ethanolaminie-phosphate, N-Lactoyl ethanolamine phosphate]", "values": [{"measurement": "taste description of lemonade compared with control", "value": "more acidic, more natural, more juicy, more complex"}]}
